# Assay results as given in patent publication US20160058712A1, “3-HYDROXYPTEROSTILBENE AND THERAPEUTIC APPLICATIONS THEREOF” (priority 2014, published 2016).
# Key:
# [1] = tested on: COLO 205 cells; assay: ROS production by DCFHDA flow cytometry; type: cell-based, human; details: COLO 205, 50 μM, 15 min; from 114
# Experimental: For mitochondrial membrane potential and ROS production, COLO 205 cells were treated as described under Example III for 15 min, and then DiOC6 [3,3′-dihexyloxacarbocyanine iodide] (40 nM) or DCFHDA [2′,7′-dichlorodihydrofluorescein diacetate] (20 μM) was added to the medium for a further 30 min at 37° C. After washing with PBS, the fluorescence intensity was determined by FAC Scan cytometry. The DiOC6 fluorescence intensity shifted to the left from 224 to 117 and 75 in pterostilbene and 3-HPT induced apoptotic COLO 205 cells, respectively. […] The role of ROS in the induction of apoptosis is well recognized. […] The imbalance of ROS concentrations could play an important role as an early mediator in 3-HPT induced apoptosis.
# [2] = tested on: COLO 205 cells; assay: Autophagy (acidic vesicular organelles) by acridine orange staining; type: cell-based, human; details: 24 h
# Experimental: Autophagy induction in COLO 205 cells treated with 3-HPT and pterostilbene was detected by Acridine Orange (AO) staining. After 24 h treatment, COLO 205 cells were washed with phosphate buffered saline (PBS), suspended in PBS and stained with 1 μg/mL AO of 20 min. Photographs were obtained with a fluorescence microscope (Axioscop, Carl Zeiss, Thomwood, N.Y.) equipped with a mercury 100 W lamp, 490 nm Bandpass blue excitation filters, a 500 nm dichroic mirror and a 515 nm long pass barrier filter. For quantification of AVOs by flow cytometry, cells were treated as described under EXAMPLE II and stained with AO for 15 min and were analyzed by FACScan laser flow cytometer and CellQuest software.
# [3] = tested on: PARP, DFF-45, pro-caspase 8 and pro-caspase 9 in COLO 205 cells; assay: Western blotting of PARP, DFF-45, pro-caspase 8 and pro-caspase 9 cleavage; type: cell-based, human; details: COLO 205 cell lysates
# Experimental: Western blotting analysis was performed as follows. The total proteins of COLO 205 cells were extracted via addition of gold lysis buffer (50 mM TrisHCl, pH 7.4; 1 mM NaF; 150 mM NaCl; 1 mM EGTA; 1 mM phenylmethanesulfonyl fluoride; 1% NP40; and 10 μg/mL leupeptin) to the cell pellets on ice for 30 min, followed by centrifugation at 10,000×g for 30 min at 4° C. The total proteins were measured by BioRad Protein Assay (BioRad Laboratories, Munich, Germany). The samples (50 μg of protein) were mixed with 5× sample buffer containing 0.3 M TrisHCl (pH 6.8), 25% 2mercaptoethanol, 12% sodium dodecyl sulfate (SDS), 25 mM EDTA, 20% glycerol, and 0.1% bromophenol blue. The mixtures were boiled at 100° C. for 5 min and were subjected to 10% SDS polyacrylamide minigels at a constant current of 20 mA. Electrophoresis was then carried out on SDSpolyacrylaniide gels. Proteins on the gel were electrotransferred onto an immobile membrane (PVDF; Millipore Corp., Bedford, Mass.) with transfer buffer composed of 25 mM TrisHCl (pH8.9), 192 mM glycine, and 20% methanol. The membranes were blocked with blocking solution containing 20 mM TrisHCl, and then immunoblotted with different primary antibodies and β actin. The blots were rinsed three times with PBST buffer (0.2% Tween 20 in 1× PBS buffer) for 10 min each. Then blots were incubated with 1:5000 dilution of the horseradish peroxidase (HRP) conjugated secondary antibody (Zymed Laboratories, San Francisco, Calif.) and then washed again three times with PBST buffer. The transferred proteins were visualized with an enhanced chemi-luminescence detection kit (ECL Amersham Pharmacia Biotech, Buckinghamshire, UK). The densities of the bands were quantified with a computer densitometer (AlphaImager™ 2200 System Alpha densitometer. Innotech Corporation, San Leandro, Calif.). […] The pro-caspase 8 cleavage by 3-HPT was moderate (FIG. 12).
# [4] = tested on: caspase 3, 8 and 9 in PC-3 cells; assay: Fluorometric caspase 3, 8 and 9 activity in PC-3 cells; type: cell-based, human; details: PC-3, 0-20 μM, 48 hours
# [5] = tested on: HT-29 cells; assay: MTT cell viability assay, HT29; type: cell-based; details: Homo sapiens; HT-29, MTT, 24 h
# Experimental: The human colon cancer cell lines COLO 205, HCT116 and HT29 were purchased from the American Type Culture Collection (Rockville, Md.). Cell lines were grown in RPMI1640 supplemented with 10% heat inactivated fetal bovine serum (GIBCO BRL, Grand Island, N.Y.), 100 units/mL of penicillin, 100 μg/mL of streptomycin), 2 mM L-glutamine (GIBCO BRL, Grand Island, N.Y.), and were kept at 37° C. in a humidified 5% CO2 incubator. Pterostilbene and 3-HPT were dissolved in dimethyl sulfoxide (DMSO, as final concentration of 0.05%). Cells were treated with 0.05% DMSO as vehicle control.
# Cell viability was assayed by 3(4,5-dimethylthiazol-2-yl)-2,5-diphenyltetrazolium bromide (MTT). Briefly. COLO 205, HCT116 and HT29 cells were plated at a density of 2×10^2 cells/mL into 96 well plates. After overnight growth, cells were treated with a series of concentrations of pterostilbene or 3-hydroxypterostilbene for 24 h. The final concentrations of DMSO in the culture medium were <0.05%. At the end of treatment, 0.2% MTT was added and cells were incubated for a further 4 h. Cell viability was determined by scanning with an ELISA reader with a 570 nm filter.
# [6] = tested on: LC3 I/II in COLO 205 cells; assay: Western blotting of LC3 I/II expression; type: cell-based, human; details: COLO 205, 50 μM, 24 hours, compared to pterostilbene
# Experimental: Western blotting analysis was performed as follows. The total proteins of COLO 205 cells were extracted via addition of gold lysis buffer (50 mM TrisHCl, pH 7.4; 1 mM NaF; 150 mM NaCl; 1 mM EGTA; 1 mM phenylmethanesulfonyl fluoride; 1% NP40; and 10 μg/mL leupeptin) to the cell pellets on ice for 30 min, followed by centrifugation at 10,000×g for 30 min at 4° C. The total proteins were measured by BioRad Protein Assay (BioRad Laboratories, Munich, Germany). The samples (50 μg of protein) were mixed with 5× sample buffer containing 0.3 M TrisHCl (pH 6.8), 25% 2mercaptoethanol, 12% sodium dodecyl sulfate (SDS), 25 mM EDTA, 20% glycerol, and 0.1% bromophenol blue. The mixtures were boiled at 100° C. for 5 min and were subjected to 10% SDS polyacrylamide minigels at a constant current of 20 mA. Electrophoresis was then carried out on SDSpolyacrylaniide gels. […] The transferred proteins were visualized with an enhanced chemi-luminescence detection kit (ECL Amersham Pharmacia Biotech, Buckinghamshire, UK). The densities of the bands were quantified with a computer densitometer (AlphaImager™ 2200 System Alpha densitometer. Innotech Corporation, San Leandro, Calif.). […]
# COLO 205 cells were treated with 50 μM pterostilbene or 3-hydroxypterostilbene for 24 hours. Cell lysates were prepared after 24 h treatment and the protein expression of LC3 were analyzed by Western blotting.
structure (smiles),measurement,setting,value
"COc1cc(/C=C/c2ccc(O)c(O)c2)cc(OC)c1 [3-hydroxypterostilbene, 3,4-dihydroxy-3′,5′-dimethoxy-trans-stilbene]",mean DCFHDA fluorescence intensity (ROS),[1],38
same,appearance of AVO (fluorescence microscopy),"[2]; COLO 205, 50 μM",marked appearance of AVO than pterostilbene
same,red fluorescence of cells with AVOs (flow cytometry),"[2]; COLO 205, 25 and 50 μM",significantly increased after treatment with 3-HPT in a dose dependent manner
same,DFF45 protein degradation,[3],induced DFF45 protein degradation
same,pro-caspase 8 cleavage,[3],moderate
same,pro-caspase 9 cleavage,[3],much better than that exemplified by pterostilbene
same,degradation of PARP,[3]; compared with pterostilbene,markedly caused the degradation of 116 kDa PARP into 85 kDa fragments
same,"caspases activity (caspase 3, 8 and 9)",[4],initiation of caspases activity
same,IC50,[5],70.9 ± 1 µM
same,protein LC3 I/II expression,[6],Enhanced protein LC3 I/II expression
